Tests used:
Type in all cases: in vivo
[1] = tested on: Surinam grass (Brachiaria decumbens); test: Test B postemergence; conditions: 13 to 15 days
Outline: (§1)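 Post-treatment, species sat 13–15 days under greenhouse conditions before visual scoring against controls, 0 (no effect) through 100 (complete control). Application preemergence to sown seeds or postemergence at 1- to 4-leaf stage, using a non-phytotoxic solvent/surfactant formulation.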

[2] = tested on: barnyardgrass (Echinochloa crus-galli); test: Test B postemergence; conditions: 13 to 15 days
Outline: as §1

[3] = tested on: blackgrass (Alopecurus myosuroides); test: Test B postemergence; conditions: 13 to 15 days
Outline: as §1

[4] = tested on: cocklebur (Xanthium strumarium); test: Test B postemergence; conditions: 13 to 15 days
Outline: as §1

corn (Zea mays) [5] = test: Test B postemergence; conditions: 13 to 15 days
Outline: as §1

[6] = tested on: crabgrass (Digitaria sanguinalis); test: Test B postemergence; conditions: 13 to 15 days
Outline: as §1

[7] = tested on: giant foxtail (Setaria faberii); test: Test B postemergence; conditions: 13 to 15 days
Outline: as §1

[8] = tested on: lambsquarters (Chenopodium album); test: Test B postemergence; conditions: 13 to 15 days
Outline: as §1

[9] = tested on: morning glory (Ipomoea hederacea); test: Test B postemergence; conditions: 13 to 15 days
Outline: as §1

[10] = tested on: pigweed (Amaranthus retroflexus); test: Test B postemergence; conditions: 13 to 15 days
Outline: as §1

[11] = tested on: velvetleaf (Abutilon theophrasti); test: Test B postemergence; conditions: 13 to 15 days
Outline: as §1

[12] = tested on: wheat (Triticum aestivum); test: Test B postemergence; conditions: 13 to 15 days
Outline: as §1

wild oat (Avena fatua) = test: Test B postemergence; conditions: 13 to 15 days
Outline: as §1

[13] = tested on: Surinam grass (Brachiaria decumbens); test: Test B preemergence
Outline: as §1

[14] = tested on: barnyardgrass (Echinochloa crus-galli); test: Test B preemergence
Outline: as §1

[15] = tested on: cocklebur (Xanthium strumarium); test: Test B preemergence
Outline: as §1

corn (Zea mays) [16] = test: Test B preemergence
Outline: as §1

[17] = tested on: crabgrass (Digitaria sanguinalis); test: Test B preemergence
Outline: as §1

[18] = tested on: giant foxtail (Setaria faberii); test: Test B preemergence
Outline: as §1

[19] = tested on: lambsquarters (Chenopodium album); test: Test B preemergence
Outline: as §1

[20] = tested on: morning glory (Ipomoea hederacea); test: Test B preemergence
Outline: as §1

[21] = tested on: pigweed (Amaranthus retroflexus); test: Test B preemergence
Outline: as §1

rice (Oryza saliva) = test: Test B preemergence
Outline: as §1

[22] = tested on: velvetleaf (Abutilon theophrasti); test: Test B preemergence
Outline: as §1

Sunflower = test: Test C preemergence; conditions: Rate 250 g/ha, scale 0 to 100, 0 no effect, 100 complete control
[23] = Rate 125 g/ha, scale 0 (no effect) to 100 (complete control)
[24] = Rate 500 g/ha, scale 0 to 100, 0 is no effect, 100 is complete control
[25] = Preemergence, Rate 500 g/ha, scale 0 to 100, 0 no effect, 100 complete control
[26] = preemergence, Rate 125 g/ha, scale of 0 to 100 where 0 is no effect and 100 is complete control, 13 to 15 days

CCC(CC)c1ccn(C2CCN(c3ccc(C)c(OC)c3)C2=O)n1 (stereo not shown) [Compound 81]
20: Plant response rating, Lambsquarters [8, 23]
0: Plant response rating, Surinam grass [1, 23] | Plant response rating, Barnyardgrass [2, 23] | Plant response rating, Barnyardgrass [2, 24] | Plant response rating, Blackgrass [3, 23] | Plant response rating, Blackgrass [3, 24] | Plant response rating, Crabgrass [6, 23] | Plant response rating, Foxtail, Giant [7, 23] | Plant response rating, Foxtail, Giant [7, 24] | Plant response rating, Wheat [12, 23] | Plant response rating, Wheat [12, 24] | Plant response rating, Wild Oat (wild oat (Avena fatua); [23]) | Plant response rating, Wild Oat (wild oat (Avena fatua); [24]) | Plant response rating, Cocklebur [15, 26] | Plant response rating, Corn (corn (Zea mays) [16]; [26]) | Plant response rating, Sunflower (Sunflower)
30: Plant response rating, Crabgrass [6, 24] | Plant response rating, Corn (corn (Zea mays) [16]; [25]) | Plant response rating, Morningglory [20, 26]
90: Plant response rating, Cocklebur [4, 23] | Plant response rating, Lambsquarters [8, 24] | Plant response rating, Pigweed [10, 24] | Plant response rating, Velvetleaf [11, 24] | Plant response rating, Surinam grass [13, 26] | Plant response rating, Cocklebur [15, 25] | Plant response rating, Rice (rice (Oryza saliva); [25])
70: Plant response rating, Pigweed [10, 23] | Plant response rating, Velvetleaf [22, 26]
10: Plant response rating, Surinam grass [1, 24] | Plant response rating, Corn (corn (Zea mays) [5]; [23]) | Plant response rating, Corn (corn (Zea mays) [5]; [24])
50: Plant response rating, Rice (rice (Oryza saliva); [26])
80: Plant response rating, Morningglory [9, 23] | Plant response rating, Velvetleaf [11, 23] | Plant response rating, Velvetleaf [22, 25]
100: Plant response rating, Cocklebur [4, 24] | Plant response rating, Morningglory [9, 24] | Plant response rating, Surinam grass [13, 25] | Plant response rating, Barnyardgrass [14, 25] | Plant response rating, Barnyardgrass [14, 26] | Plant response rating, Crabgrass [17, 25] | Plant response rating, Crabgrass [17, 26] | Plant response rating, Foxtail, Giant [18, 25] | Plant response rating, Foxtail, Giant [18, 26] | Plant response rating, Lambsquarters [19, 25] | Plant response rating, Lambsquarters [19, 26] | Plant response rating, Morningglory [20, 25] | Plant response rating, Pigweed [21, 25] | Plant response rating, Pigweed [21, 26]

CCOc1cc(N2CCC(n3ccc(C(C)(C)C)n3)C2=O)ccc1C (stereo not shown) [Compound 106]
40: Plant response rating, Foxtail, Giant [18, 26]
100: Plant response rating, Lambsquarters [8, 24] | Plant response rating, Morningglory [9, 24] | Plant response rating, Surinam grass [13, 25] | Plant response rating, Surinam grass [13, 26] | Plant response rating, Barnyardgrass [14, 25] | Plant response rating, Cocklebur [15, 25] | Plant response rating, Crabgrass [17, 25] | Plant response rating, Crabgrass [17, 26] | Plant response rating, Lambsquarters [19, 25] | Plant response rating, Lambsquarters [19, 26] | Plant response rating, Morningglory [20, 25] | Plant response rating, Morningglory [20, 26] | Plant response rating, Pigweed [21, 25] | Plant response rating, Pigweed [21, 26] | Plant response rating, Rice (rice (Oryza saliva); [25]) | Plant response rating, Velvetleaf [22, 25]
80: Plant response rating, Velvetleaf [11, 24]
60: Plant response rating, Foxtail, Giant [18, 25]
0: Plant response rating, Surinam grass [1, 23] | Plant response rating, Surinam grass [1, 24] | Plant response rating, Barnyardgrass [2, 23] | Plant response rating, Barnyardgrass [2, 24] | Plant response rating, Blackgrass [3, 23] | Plant response rating, Blackgrass [3, 24] | Plant response rating, Corn (corn (Zea mays) [5]; [23]) | Plant response rating, Corn (corn (Zea mays) [5]; [24]) | Plant response rating, Crabgrass [6, 23] | Plant response rating, Crabgrass [6, 24] | Plant response rating, Foxtail, Giant [7, 23] | Plant response rating, Foxtail, Giant [7, 24] | Plant response rating, Wheat [12, 24] | Plant response rating, Wild Oat (wild oat (Avena fatua); [24]) | Plant response rating, Rice (rice (Oryza saliva); [26]) | Plant response rating, Velvetleaf [22, 26]
30: Plant response rating, Cocklebur [15, 26] | Plant response rating, Corn (corn (Zea mays) [16]; [25]) | Plant response rating, Corn (corn (Zea mays) [16]; [26])
90: Plant response rating, Cocklebur [4, 23] | Plant response rating, Cocklebur [4, 24] | Plant response rating, Pigweed [10, 24] | Plant response rating, Barnyardgrass [14, 26] | Plant response rating, Sunflower (Sunflower)

CCCC(C)c1ccn(C2SCN(c3cccc(OC(F)(F)F)c3)C2=O)n1 (stereo not shown) [Compound 90]
70: Plant response rating, Morningglory [9, 24]
60: Plant response rating, Cocklebur [4, 24]
20: Plant response rating, Barnyardgrass [2, 23] | Plant response rating, Cocklebur [4, 23] | Plant response rating, Crabgrass [6, 23] | Plant response rating, Wild Oat (wild oat (Avena fatua); [24]) | Plant response rating, Surinam grass [13, 26] | Plant response rating, Corn (corn (Zea mays) [16]; [25])
100: Plant response rating, Lambsquarters [8, 24] | Plant response rating, Barnyardgrass [14, 25] | Plant response rating, Crabgrass [17, 25] | Plant response rating, Foxtail, Giant [18, 25] | Plant response rating, Lambsquarters [19, 25] | Plant response rating, Lambsquarters [19, 26] | Plant response rating, Pigweed [21, 25]
80: Plant response rating, Barnyardgrass [2, 24] | Plant response rating, Surinam grass [13, 25] | Plant response rating, Foxtail, Giant [18, 26] | Plant response rating, Pigweed [21, 26]
0: Plant response rating, Surinam grass [1, 23] | Plant response rating, Blackgrass [3, 23] | Plant response rating, Blackgrass [3, 24] | Plant response rating, Corn (corn (Zea mays) [5]; [23]) | Plant response rating, Foxtail, Giant [7, 23] | Plant response rating, Wheat [12, 24] | Plant response rating, Cocklebur [15, 25] | Plant response rating, Cocklebur [15, 26] | Plant response rating, Corn (corn (Zea mays) [16]; [26]) | Plant response rating, Morningglory [20, 25] | Plant response rating, Morningglory [20, 26] | Plant response rating, Rice (rice (Oryza saliva); [25]) | Plant response rating, Rice (rice (Oryza saliva); [26]) | Plant response rating, Velvetleaf [22, 25] | Plant response rating, Velvetleaf [22, 26]
90: Plant response rating, Pigweed [10, 24] | Plant response rating, Crabgrass [17, 26]
50: Plant response rating, Crabgrass [6, 24] | Plant response rating, Barnyardgrass [14, 26]
40: Plant response rating, Foxtail, Giant [7, 24] | Plant response rating, Velvetleaf [11, 24]
30: Plant response rating, Surinam grass [1, 24]
10: Plant response rating, Corn (corn (Zea mays) [5]; [24]) | Plant response rating, Sunflower (Sunflower)

COC(=O)c1cccc(N2CCC(n3ccc(C(C)(C)C)n3)C2=O)c1 (stereo not shown) [Compound 73]
30: Plant response rating, Barnyardgrass [2, 23] | Plant response rating, Corn (corn (Zea mays) [5]; [23]) | Plant response rating, Corn (corn (Zea mays) [16]; [25]) | Plant response rating, Rice (rice (Oryza saliva); [26])
50: Plant response rating, Crabgrass [6, 24] | Plant response rating, Foxtail, Giant [7, 24] | Plant response rating, Velvetleaf [11, 23] | Plant response rating, Surinam grass [13, 26]
20: Plant response rating, Cocklebur [4, 23] | Plant response rating, Foxtail, Giant [7, 23] | Plant response rating, Morningglory [9, 23] | Plant response rating, Morningglory [9, 24] | Plant response rating, Pigweed [10, 23]
90: Plant response rating, Barnyardgrass [2, 24] | Plant response rating, Cocklebur [4, 24] | Plant response rating, Pigweed [10, 24] | Plant response rating, Surinam grass [13, 25] | Plant response rating, Cocklebur [15, 25] | Plant response rating, Velvetleaf [22, 26]
0: Plant response rating, Surinam grass [1, 23] | Plant response rating, Surinam grass [1, 24] | Plant response rating, Blackgrass [3, 23] | Plant response rating, Blackgrass [3, 24] | Plant response rating, Crabgrass [6, 23] | Plant response rating, Lambsquarters [8, 23] | Plant response rating, Wheat [12, 23] | Plant response rating, Wheat [12, 24] | Plant response rating, Wild Oat (wild oat (Avena fatua); [23]) | Plant response rating, Wild Oat (wild oat (Avena fatua); [24]) | Plant response rating, Cocklebur [15, 26] | Plant response rating, Corn (corn (Zea mays) [16]; [26]) | Plant response rating, Morningglory [20, 26]
100: Plant response rating, Barnyardgrass [14, 25] | Plant response rating, Barnyardgrass [14, 26] | Plant response rating, Crabgrass [17, 25] | Plant response rating, Crabgrass [17, 26] | Plant response rating, Foxtail, Giant [18, 25] | Plant response rating, Foxtail, Giant [18, 26] | Plant response rating, Lambsquarters [19, 25] | Plant response rating, Lambsquarters [19, 26] | Plant response rating, Morningglory [20, 25] | Plant response rating, Pigweed [21, 25] | Plant response rating, Pigweed [21, 26] | Plant response rating, Velvetleaf [22, 25]
40: Plant response rating, Corn (corn (Zea mays) [5]; [24]) | Plant response rating, Rice (rice (Oryza saliva); [25])
70: Plant response rating, Lambsquarters [8, 24] | Plant response rating, Velvetleaf [11, 24] | Plant response rating, Sunflower (Sunflower)

— patent US7138361B2, “Herbicidal heterocycles” (E. I. du Pont de Nemours and Company, priority 2000, dated 2006)
